{
  "source": "paper PMC3251870",
  "about": "(British Journal of Cancer, 2011)",
  "key": {"[1]": {"system": "total HDAC activity, C127 cells", "test": "Total HDAC activity in lysates from drug-treated cells", "format": "cell-based", "conditions": "25 nM", "description": "(§1) HDAC2 was purified as described below."}, "[2]": {"system": "total HDAC activity, C127 cell extracts", "test": "Total HDAC activity in cell extracts treated in vitro", "format": "biochemical", "description": "as §1"}, "M14 melanoma cells": {"system": "M14 melanoma cells", "test": "MTS cell viability, M14", "format": "cell-based, human", "conditions": "4 days", "experimental": "(§2) All human cancer cell lines were maintained in RPMI media supplemented with 5% (lung and breast cancer cells) or 10% (melanoma cells) fetal bovine serum. […] Human mammary epithelial cells immortalised with telomerase were maintained in complete MEGM media from Cambrex (East Rutherford, NJ, USA).\n(§3) Absorbance at 490 and 650 nm (reference wavelength) was measured by a Spectra Max (Molecular Devices, Sunnyvale, CA, USA) or a FlouroStar Omega (BMG Biosciences, Ortenberg, Germany) plate reader. Data were normalised to the untreated controls (100% viability). Each cell line was tested in 1–5 independent assays, each containing 4–8 replicates. IC50 values were calculated using DIVISA, a high-throughput software, developed in-house (manuscript in preparation), for storing and analysing drug sensitivity assays. Dose–response curves were plotted using a non-linear regression model and IC50s were determined from the fitted curves."}, "[3]": {"system": "HBEC15KT human bronchial epithelial cells", "test": "MTS cell viability, HBEC15KT", "format": "cell-based", "conditions": "4 days", "experimental": "as §2, §3"}, "[4]": {"molecular_target": "purified recombinant HDAC8 (Homo sapiens, UniProt Q9BY41)", "sequence (Q9BY41 whole entry, species assumed)": "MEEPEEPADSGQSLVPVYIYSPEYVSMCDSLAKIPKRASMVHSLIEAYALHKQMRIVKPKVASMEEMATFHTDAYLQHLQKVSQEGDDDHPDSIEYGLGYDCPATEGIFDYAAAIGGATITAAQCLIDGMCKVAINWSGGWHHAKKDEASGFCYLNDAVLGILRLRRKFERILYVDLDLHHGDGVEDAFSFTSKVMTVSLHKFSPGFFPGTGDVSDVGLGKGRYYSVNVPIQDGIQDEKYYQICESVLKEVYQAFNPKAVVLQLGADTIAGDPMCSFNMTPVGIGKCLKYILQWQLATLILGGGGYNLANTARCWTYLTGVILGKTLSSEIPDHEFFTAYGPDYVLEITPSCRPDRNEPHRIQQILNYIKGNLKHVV", "from_the_text": "(§5) Cell extracts or purified recombinant HDAC enzymes were used in standard HDAC activity assays using Millipore's HDAC Fluorometric Assay Kit (Millipore, Billerica, MA, USA), according to the manufacturer's protocol. A FluoroStar Omega plate reader (BMG Biosciences) was used for fluorescent detection. Purified recombinant active HDACs 1, 5 and 8 were purchased from Millipore/Upstate."}, "HCC366 cells": {"system": "HCC366 cells", "test": "MTS cell viability, HCC366", "format": "cell-based, human", "conditions": "HCC366 NSCLC, 4 days", "experimental": "as §2, §3"}, "MALME3M melanoma cells": {"system": "MALME3M melanoma cells", "test": "MTS cell viability, MALME3M", "format": "cell-based, human", "conditions": "4 days", "experimental": "as §2, §3"}, "HCC1806 cells": {"system": "HCC1806 cells", "test": "MTS cell viability, HCC1806", "format": "cell-based, human", "conditions": "HCC1806 breast cancer line, 4 days", "experimental": "as §2, §3"}, "SKMEL28 melanoma cells": {"system": "SKMEL28 melanoma cells", "test": "MTS cell viability, SKMEL28", "format": "cell-based, human", "conditions": "4 days", "experimental": "as §2, §3"}, "UACC257 melanoma cells": {"system": "UACC257 melanoma cells", "test": "MTS cell viability, UACC257", "format": "cell-based, human", "conditions": "4 days", "experimental": "as §2, §3"}, "[5]": {"molecular_target": "purified recombinant HDAC1 (Homo sapiens, UniProt Q13547)", "sequence (Q13547 whole entry, species assumed)": "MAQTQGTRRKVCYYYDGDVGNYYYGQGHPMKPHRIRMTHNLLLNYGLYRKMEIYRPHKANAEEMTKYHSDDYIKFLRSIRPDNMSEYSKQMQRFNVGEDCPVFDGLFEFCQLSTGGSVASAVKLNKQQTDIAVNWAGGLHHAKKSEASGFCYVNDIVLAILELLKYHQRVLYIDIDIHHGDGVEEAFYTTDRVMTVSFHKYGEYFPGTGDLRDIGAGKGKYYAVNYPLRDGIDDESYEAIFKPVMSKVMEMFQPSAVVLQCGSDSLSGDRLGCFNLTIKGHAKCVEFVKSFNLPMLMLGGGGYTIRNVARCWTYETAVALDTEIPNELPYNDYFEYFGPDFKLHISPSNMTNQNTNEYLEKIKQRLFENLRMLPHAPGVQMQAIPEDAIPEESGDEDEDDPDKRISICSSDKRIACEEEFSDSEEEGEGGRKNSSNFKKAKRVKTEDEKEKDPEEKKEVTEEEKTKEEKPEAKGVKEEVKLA", "conditions": "50 nM", "from_the_text": "as §5"}, "[6]": {"system": "OCM3 uveal melanoma cells", "test": "MTS cell viability, OCM3", "format": "cell-based, human", "conditions": "4 days", "experimental": "as §2, §3"}, "H2086 cells": {"system": "H2086 cells", "test": "MTS cell viability, H2086", "format": "cell-based, human", "conditions": "H2086 NSCLC, 4 days", "experimental": "as §2, §3"}, "H1437 cells": {"system": "H1437 cells", "test": "ATP-based cell viability, H1437 vs H1299", "parameters": "species or system human", "conditions": "cell viability by ATP measurements", "description": "Supplementary Material Chang et al\nThis supplementary material contains:\n-Supplementary Figure Legends\n-Supplementary Figures 1- 4\nPlease see separate excel file for Supplementary Table 1.\nSupplementary Figure Legends\nSupplementary Figure 1: Expanded panel of cell lines showing distinct relative sensitivities to\nTSA vs. depsipeptide. Lung cancer cell lines not depicted in the main Figure 1A are shown in A)\nand an expanded set of breast cancer cells and HMES and melanomacells and melanocytes in\nSupplementary Figure 2: Differential response to HDAC inhibitors is a general phenomenon. A)\nH1299 also by ATP measurements.\nSupplementary Figure 3: HDAC ex pression levels may contribute to drug sensitivity. A)\nB) HDAC 2 levels are similar in the cell line\nSupplementary Figure 4: Validation of microarray gene expression differences in the\nH1993/H2073 cell line pair confirmed overexpression of glutathione metabolism genes in H2073\n(shown in A) and downregulation of chromatin interacting proteins (B)."}, "H358 cells": {"system": "H358 cells", "test": "MTS cell viability, H358", "format": "cell-based, human", "conditions": "H358 NSCLC, 4 days", "experimental": "as §2, §3"}, "SKMEL2 melanoma cells": {"system": "SKMEL2 melanoma cells", "test": "MTS cell viability, SKMEL2", "format": "cell-based, human", "conditions": "SKMEL2 melanoma, MTS, 4 days", "experimental": "as §2, §3"}, "H820 cells": {"system": "H820 cells", "test": "MTS cell viability, H820", "format": "cell-based, human", "conditions": "H820 NSCLC, 4 days", "experimental": "as §2, §3"}, "[7]": {"system": "histone 3 acetylation in H358 cells", "test": "Western blot, acetylated histone 3", "format": "cell-based, human", "conditions": "24 h", "experimental": "(§4) Exponentially growing cells were treated with the appropriate compounds and harvested 4 or 24 h later in a standard nuclear lysis buffer and whole cell lysates were quantified. Equal amounts of total protein were loaded onto 4–12% Bis-Tris SDS gels and subjected to electrophoresis. After transferring onto nitrocellulose membranes, blots were probed for acetylated tubulin (Sigma, St Louis, MO, USA; T6793), acetylated histone 3 (Millipore/Upstate #06-599), acetylated histone 4 (Millipore/Upstate #07-329) or trimethylated histone 3 at lysine 9 (Millipore/Upstate #07-523). Actin (Santa Cruz, Santa Cruz, CA, USA; #1616) and HDAC1 (Affinity Bioreagents, Rockford, IL, USA; #PA1-860) were probed as loading controls. Quantification of bands in films was performed using two independent methods, which yielded similar results, Image J (NIH public software) and Quantity one (Bio-Rad, Hercules, CA, USA). The average of the two methods±s.e.m. is shown as specified in figure legends. For the MDR western analysis, a primary antibody against P-glycoprotein from Calbiochem (Darmstadt, Germany) was used according to the manufacturer's recommendations and HSP90 (Santa Cruz) was used as a loading control."}, "[8]": {"system": "acetylated tubulin in H358 cells", "test": "Western blot, acetylated tubulin", "format": "cell-based, human", "conditions": "200 nM, 24 h", "experimental": "as §4"}, "recombinant murine HDAC2": {"molecular_target": "T1, recombinant murine HDAC2 (Mus musculus, UniProt P70288)", "T1 construct": "The murine HDAC2 open reading frame was amplified by PCR from the plasmid pME18S-HDAC2; FLAG (DYKDDDDK) (C); made in house; host or cells: Sf9 insect cells (baculovirus)", "T1 sequence (P70288 whole entry)": "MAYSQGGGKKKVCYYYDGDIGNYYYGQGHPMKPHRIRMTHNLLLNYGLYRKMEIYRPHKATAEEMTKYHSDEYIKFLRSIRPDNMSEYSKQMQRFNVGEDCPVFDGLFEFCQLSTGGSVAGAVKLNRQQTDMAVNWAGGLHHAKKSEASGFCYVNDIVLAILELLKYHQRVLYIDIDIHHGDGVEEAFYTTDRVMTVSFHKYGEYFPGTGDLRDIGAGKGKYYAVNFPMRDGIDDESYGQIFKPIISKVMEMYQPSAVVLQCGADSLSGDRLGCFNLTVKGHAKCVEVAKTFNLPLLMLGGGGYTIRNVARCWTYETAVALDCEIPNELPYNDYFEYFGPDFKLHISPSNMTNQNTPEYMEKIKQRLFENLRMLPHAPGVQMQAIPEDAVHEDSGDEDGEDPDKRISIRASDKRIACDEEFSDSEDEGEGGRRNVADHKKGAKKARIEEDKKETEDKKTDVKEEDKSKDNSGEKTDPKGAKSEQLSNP", "test": "HDAC fluorometric activity assay, purified HDAC2", "format": "biochemical", "conditions": "400 nM", "from_the_text": "Cell extracts or purified recombinant HDAC enzymes were used in standard HDAC activity assays using Millipore's HDAC Fluorometric Assay Kit (Millipore, Billerica, MA, USA), according to the manufacturer's protocol. A FluoroStar Omega plate reader (BMG Biosciences) was used for fluorescent detection. […] HDAC2 was purified as described below."}},
  "note": "Read-outs that look alike come from different tables or passages of the source.",
  "data": [
    {"smiles": "C/C=C1\\NC(=O)[C@H]2CSSCC/C=C/[C@H](CC(=O)N[C@H](C(C)C)C(=O)N2)OC(=O)[C@H](C(C)C)NC1=O", "note": "[Depsipeptide, depsipeptide]", "values": [
      {"measurement": "total HDAC activity in lysates made from treated cells vs DMSO-treated cells", "setting": "[1]", "value": "strong inhibition"},
      {"measurement": "inhibition of total HDAC activity in cell extracts treated in vitro", "setting": "[2]; 20 nM", "value": "partly inhibited"},
      {"measurement": "IC50", "setting": "M14 melanoma cells", "value": 0.0024, "unit": "µM"},
      {"measurement": "IC50", "setting": "[3]", "value": 0.0025, "unit": "µM"},
      {"measurement": "inhibition of HDAC8 activity", "setting": "[4]; 50 nM", "value": "no effect"},
      {"measurement": "inhibition of HDAC8 activity", "setting": "[4]; 0.5 μM", "value": "no effect"},
      {"measurement": "IC50", "setting": "HCC366 cells", "value": 0.0031, "unit": "µM"},
      {"measurement": "IC50", "setting": "MALME3M melanoma cells", "value": 0.0007, "unit": "µM"},
      {"measurement": "IC50", "setting": "HCC1806 cells", "value": 0.0018, "unit": "µM"},
      {"measurement": "IC50", "setting": "SKMEL28 melanoma cells", "value": 0.0008, "unit": "µM"},
      {"measurement": "IC50", "setting": "UACC257 melanoma cells", "value": 0.0016, "unit": "µM"},
      {"measurement": "inhibition of HDAC1 activity", "setting": "[5]", "value": "no inhibition"},
      {"measurement": "IC50", "setting": "[6]", "value": 0.0015, "unit": "µM"},
      {"measurement": "IC50", "setting": "H2086 cells", "value": 0.0038, "unit": "µM"},
      {"measurement": "sensitivity of H1437 compared to H1299", "setting": "H1437 cells", "value": "greater sensitivity"},
      {"measurement": "IC50", "setting": "H358 cells", "value": 0.0011, "unit": "µM"},
      {"measurement": "IC50", "setting": "SKMEL2 melanoma cells", "value": 0.0004, "unit": "µM"},
      {"measurement": "IC50", "setting": "H820 cells", "value": 0.004, "unit": "µM"},
      {"measurement": "global level of histone 3 acetylation", "setting": "[7]; 25 nM", "value": "globally increased"}
    ]},
    {"smiles": "CC(/C=C/C(=O)NO)=C\\[C@@H](C)C(=O)c1ccc(N(C)C)cc1", "note": "[TSA, trichostatin A]", "values": [
      {"measurement": "inhibition of total HDAC activity in cell extracts treated in vitro", "setting": "[2]; 150 nM", "value": "blocked"},
      {"measurement": "IC50", "setting": "M14 melanoma cells", "value": 0.098, "unit": "µM"},
      {"measurement": "IC50", "setting": "[3]", "value": 0.295, "unit": "µM"},
      {"measurement": "IC50", "setting": "HCC366 cells", "value": 0.147, "unit": "µM"},
      {"measurement": "IC50", "setting": "MALME3M melanoma cells", "value": 0.24, "unit": "µM"},
      {"measurement": "IC50", "setting": "HCC1806 cells", "value": 0.041, "unit": "µM"},
      {"measurement": "IC50", "setting": "SKMEL28 melanoma cells", "value": 0.4, "unit": "µM"},
      {"measurement": "acetylated tubulin levels", "setting": "[8]", "value": "increase"},
      {"measurement": "IC50", "setting": "UACC257 melanoma cells", "value": 0.222, "unit": "µM"},
      {"measurement": "inhibition of HDAC2 activity", "setting": "recombinant murine HDAC2", "value": "fully inhibited"},
      {"measurement": "IC50", "setting": "[6]", "value": 0.22, "unit": "µM"},
      {"measurement": "IC50", "setting": "H2086 cells", "value": 0.275, "unit": "µM"},
      {"measurement": "IC50", "setting": "H358 cells", "value": 0.04, "unit": "µM"},
      {"measurement": "IC50", "setting": "SKMEL2 melanoma cells", "value": 0.336, "unit": "µM"},
      {"measurement": "IC50", "setting": "H820 cells", "value": 0.055, "unit": "µM"},
      {"measurement": "global level of histone 3 acetylation", "setting": "[7]; 200 nM", "value": "globally increased"}
    ]}
  ]
}
